Data as given in patent US11566007B2, “Ras inhibitors” (Revolution Medicines, Inc., priority 2019, dated 2023).
Where two headings read alike, the source gives them in different places.

Legend:
[1] = test system: NCI-H358 (K-Ras G12C); test: CellTiter-Glo cell viability assay, NCI-H358; type: cell-based, human; details: Homo sapiens, NCI-H358, 120 h, NCI-H358, 5-day treatment; class symbols; read-out: Additional H358 Cell Viability assay data (K-Ras G12C, IC50)
Summary of the method: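 Four-parameter logistic fits were applied to luminescence data normalized against DMSO-treated wells. Readings were taken on day 5 following direct compound addition, after roughly 30 minutes at room temperature.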

[2] = molecular target: KRAS G13D (Homo sapiens (Human), UniProt P01116+P62937, G13D); test: Ras-Raf (BRAF RBD) disruption / FRET / MOA assay, KRAS G13D; type: biochemical; details: read-out: IC50* KRAS G13D FRET data
Protocol: (§1) The purpose of this biochemical assay is to measure the ability of test compounds to facilitate ternary complex formation between a nucleotide-loaded Ras isoform and cyclophilin A; the resulting ternary complex disrupts binding to a BRAF^RBD construct, inhibiting Ras signaling through a RAF effector.
(§2) Compound is present in plate wells as a 10-point 3-fold dilution series starting at a final concentration of 30 μM. After incubation at 25° C. for 3 hours, a mixture of Anti-His Eu-W1024 and anti-GST allophycocyanin is then added to assay sample wells at final concentrations of 10 nM and 50 nM, respectively, and the reaction incubated for an additional 1.5 hours. […] Compounds that facilitate disruption of a Ras:RAF complex are identified as those eliciting a decrease in the TR-FRET ratio relative to DMSO control wells.
(§3) This protocol may also be executed substituting other Ras proteins or nucleotides.
(§4) The purpose of this biochemical assay was to measure the ability of test compounds to facilitate ternary complex formation between a nucleotide-loaded K-Ras isoform and Cyclophilin A; the resulting ternary complex disrupts binding to a BRAF^RBD construct, inhibiting K-Ras signaling through a RAF effector. Data is reported as IC50 values.
as §2, with “Compound was” for “Compound is”, “allophycocyanin was” for “allophycocyanin is”, “a K-Ras:RAF” for “a Ras:RAF”, “complex were” for “complex are”

[3] = molecular target: KRAS G12D (Homo sapiens (Human), UniProt P01116+P62937, G12D); test: Ras-Raf (BRAF RBD) disruption / FRET / MOA assay, KRAS G12D; type: biochemical; details: Ras-Raf disruption/FRET/MOA assay; class symbols; read-out: KRAS G12D FRET data IC50
Summary of the method: (§5)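 Compound-driven ternary complex of nucleotide-loaded Ras with cyclophilin A, disrupting BRAF RBD binding. 10-point 3-fold dilution from 30 μM final, 3 h at 25° C, then anti-His Eu-W1024 (10 nM) and anti-GST allophycocyanin (50 nM) for 1.5 h. IC50 from TR-FRET ratio decrease versus DMSO.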

[4] = molecular target: K-Ras G12C (Homo sapiens (Human), UniProt P01116+P62937, G12C); test: Ras-Raf (BRAF RBD) disruption / FRET / MOA assay, KRAS G12C; type: biochemical; details: KRAS G12C; Ras-Raf disruption/FRET/MOA assay; read-out: IC50* KRAS G12C FRET data
Protocol: as §1, §2, §3, §4
as §2, with “Compound was” for “Compound is”, “allophycocyanin was” for “allophycocyanin is”, “a K-Ras:RAF” for “a Ras:RAF”, “complex were” for “complex are”

[5] = molecular target: KRAS G12S (Homo sapiens (Human), UniProt P01116+P62937, G12S); test: Ras-Raf (BRAF RBD) disruption / FRET / MOA assay, KRAS G12S; type: biochemical; details: Ras-Raf disruption/FRET/MOA assay; class symbols; read-out: KRAS G12S FRET data IC50
Summary of the method: as §5

[6] = molecular target: KRAS G12V (Homo sapiens (Human), UniProt P01116+P62937, G12V); test: Ras-Raf (BRAF RBD) disruption / FRET / MOA assay, KRAS G12V; type: biochemical; details: read-out: IC50* KRAS G12V FRET data
Protocol: as §1, §2, §3, §4
as §2, with “Compound was” for “Compound is”, “allophycocyanin was” for “allophycocyanin is”, “a K-Ras:RAF” for “a Ras:RAF”, “complex were” for “complex are”

[7] = molecular target: KRAS WT (Homo sapiens (Human), UniProt P01116+P62937); test: Ras-Raf (BRAF RBD) disruption / FRET / MOA assay, KRAS WT; type: biochemical; details: read-out: IC50* KRAS WT FRET data
Protocol: as §1, §2, §3, §4
as §2, with “Compound was” for “Compound is”, “allophycocyanin was” for “allophycocyanin is”, “a K-Ras:RAF” for “a Ras:RAF”, “complex were” for “complex are”

[8] = test system: NCI-H358 cells (K-Ras G12C); test: Potency assay: pERK in NCI-H358 cells; type: cell-based, human; details: H358 KRAS G12C, read-out: pERK EC50
Summary of the method: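 Compounds are dosed as ten 3-fold dilutions from a 10 mM DMSO stock, in duplicate, and left on cells for 4 h at 37 °C, 5% CO2. Phospho-ERK1/2 is then quantified by AlphaLISA SureFire Ultra or In-Cell Western, and IC50 is derived from a 4-parameter sigmoid against log concentration.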

[9] = molecular target: K-Ras G13C (Homo sapiens (Human), UniProt P01116+P62937, G13C); test: Ras-Raf (BRAF RBD) disruption / FRET / MOA assay, KRAS G13C; type: biochemical; details: KRAS G13C; Ras-Raf disruption/FRET/MOA assay; read-out: IC50* KRAS G13C FRET data
Protocol: as §1, §2, §3, §4
as §2, with “Compound was” for “Compound is”, “allophycocyanin was” for “allophycocyanin is”, “a K-Ras:RAF” for “a Ras:RAF”, “complex were” for “complex are”

[10] = molecular target: NRAS G12C (Homo sapiens (Human), UniProt P01111+P62937, G12C); test: Ras-Raf (BRAF RBD) disruption / FRET / MOA assay, NRAS G12C; type: biochemical; details: read-out: IC50* NRAS G12C FRET data
Protocol: as §1, §2
This protocol may also be executed substituting other Ras proteins or nucleotides. […]

Chain of K-Ras G13C (P01116-2 other isoform, or with tags, fused parts or gaps G13C): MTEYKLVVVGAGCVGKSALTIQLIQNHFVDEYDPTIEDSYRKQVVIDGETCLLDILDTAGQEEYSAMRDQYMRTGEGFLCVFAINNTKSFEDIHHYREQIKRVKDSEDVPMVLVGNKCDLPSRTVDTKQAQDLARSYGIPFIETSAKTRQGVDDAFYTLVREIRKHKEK
Chain of K-Ras G13C (P62937 whole entry): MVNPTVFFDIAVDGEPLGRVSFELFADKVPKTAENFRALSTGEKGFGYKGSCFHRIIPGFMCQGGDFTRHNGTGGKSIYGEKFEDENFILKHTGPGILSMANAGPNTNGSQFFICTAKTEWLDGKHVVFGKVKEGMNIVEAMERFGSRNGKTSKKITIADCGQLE
Chain of KRAS G12S (P01116-2 other isoform, or with tags, fused parts or gaps G12S): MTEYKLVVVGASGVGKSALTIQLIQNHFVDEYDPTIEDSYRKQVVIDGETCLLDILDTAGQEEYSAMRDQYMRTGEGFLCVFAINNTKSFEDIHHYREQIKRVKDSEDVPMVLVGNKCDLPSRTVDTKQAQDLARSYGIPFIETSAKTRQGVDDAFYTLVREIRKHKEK
Chain of KRAS G12S (P62937 whole entry): as the sequence (P62937 whole entry) above
Chain of KRAS G13D (P01116-2 other isoform, or with tags, fused parts or gaps G13D): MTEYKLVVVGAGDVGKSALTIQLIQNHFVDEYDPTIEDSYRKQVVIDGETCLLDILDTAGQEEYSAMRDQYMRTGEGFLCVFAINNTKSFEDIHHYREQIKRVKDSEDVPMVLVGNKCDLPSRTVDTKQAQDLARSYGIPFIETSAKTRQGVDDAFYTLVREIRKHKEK
Chain of KRAS G13D (P62937 whole entry, canonical isoform): as the sequence (P62937 whole entry) above
Chain of NRAS G12C (P01111 whole entry G12C): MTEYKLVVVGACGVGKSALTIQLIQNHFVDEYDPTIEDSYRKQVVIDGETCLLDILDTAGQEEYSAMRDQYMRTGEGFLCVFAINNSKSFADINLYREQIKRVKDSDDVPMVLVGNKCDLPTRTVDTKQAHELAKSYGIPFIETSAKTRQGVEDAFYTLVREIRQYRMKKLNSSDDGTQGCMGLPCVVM
Chain of NRAS G12C (P62937 whole entry): as the sequence (P62937 whole entry) above
Chain of K-Ras G12C (P01116-2 other isoform, or with tags, fused parts or gaps G12C): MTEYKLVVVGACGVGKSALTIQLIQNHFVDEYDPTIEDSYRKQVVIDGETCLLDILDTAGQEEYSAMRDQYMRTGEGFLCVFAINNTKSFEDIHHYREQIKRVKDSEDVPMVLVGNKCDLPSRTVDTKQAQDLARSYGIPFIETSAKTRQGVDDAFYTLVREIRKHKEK
Chain of K-Ras G12C (P62937 whole entry): as the sequence (P62937 whole entry) above
Chain of KRAS G12V (P01116-2 other isoform, or with tags, fused parts or gaps G12V): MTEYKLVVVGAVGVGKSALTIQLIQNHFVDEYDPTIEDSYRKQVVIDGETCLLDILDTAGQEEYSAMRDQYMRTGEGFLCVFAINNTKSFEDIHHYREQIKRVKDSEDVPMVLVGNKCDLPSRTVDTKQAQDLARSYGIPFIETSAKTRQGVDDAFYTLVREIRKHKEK
Chain of KRAS G12V (P62937 whole entry): as the sequence (P62937 whole entry) above
Chain of KRAS G12D (P01116-2 other isoform, or with tags, fused parts or gaps G12D): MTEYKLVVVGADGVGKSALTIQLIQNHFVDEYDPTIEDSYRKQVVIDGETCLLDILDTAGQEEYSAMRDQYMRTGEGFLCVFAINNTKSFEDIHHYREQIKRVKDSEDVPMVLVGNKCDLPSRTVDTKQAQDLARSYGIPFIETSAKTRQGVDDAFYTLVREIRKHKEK
Chain of KRAS G12D (P62937 whole entry): as the sequence (P62937 whole entry) above
Chain of KRAS WT (P01116-2 other isoform, or with tags, fused parts or gaps): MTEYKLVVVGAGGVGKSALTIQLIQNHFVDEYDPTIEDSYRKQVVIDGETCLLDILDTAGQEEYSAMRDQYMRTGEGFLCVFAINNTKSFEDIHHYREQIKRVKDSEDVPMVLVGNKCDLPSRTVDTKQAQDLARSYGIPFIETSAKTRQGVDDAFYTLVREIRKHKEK
Chain of KRAS WT (P62937 whole entry): as the sequence (P62937 whole entry) above

Compound | IC50 [1] | IC50 [2] | IC50 [3] | IC50 [4] | IC50 [5] | IC50 [6] | IC50 [7] | EC50 [8] | IC50 [9] | IC50 [10] | EC50 ([8]; Homo sapiens, NCI-H358)
CCn1c(-c2cnccc2COC)c2c3cc(ccc31)-c1cc(O)cc(c1)C[C@H](NC(=O)[C@H](C(C)C)N(C)C(=O)[C@H]1CCN(C(=O)C#CCN(C)C)C1)C(=O)N1CCC[C@H](N1)C(=O)OCC(C)(C)C2 (atropisomer, axis not shown) [Example A107] | < 10 nM | 100 to 1000 nM | 0.1 to 1 µM | < 10 nM | 100 to 1000 nM | 100 to 1000 nM | 100 to 1000 nM | < 5 µM | – | – | –
C=CC(=O)N1CC[C@H](C(=O)N(C)[C@H](C(=O)N[C@H]2Cc3cccc(c3)-c3ccc4c(c3)c(c(-c3cnccc3COC)n4CC)CC(C)(C)COC(=O)[C@@H]3CCCN(N3)C2=O)C(C)C)C1 (atropisomer, axis not shown) [Example A119] | 10 to 100 nM | > 10000 nM | > 10 µM | 100 to 1000 nM | 1000 to 10000 nM | > 10000 nM | – | – | 1000 to 10000 nM | 100 to 1000 nM | < 5 µM
CCn1c(-c2cccnc2[C@H](C)OC)c2c3cc(ccc31)-c1cccc(c1)C[C@H](NC(=O)[C@H](C(C)C)N(C)C(=O)[C@H]1CCN(C(=O)/C=C/CN3CC(OC)C3)C1)C(=O)N1CCC[C@H](N1)C(=O)OCC(C)(C)C2 (atropisomer, axis not shown) [Example A204] | – | – | > 10 µM | 10 to 100 nM | 1000 to 10000 nM | 1000 to 10000 nM | 1000 to 10000 nM | – | 1000 to 10000 nM | 10 to 100 nM | < 5 µM
C=CC(=O)N1CCC(C(=O)N(C)[C@H](C(=O)N[C@H]2CCC(=O)N(C)Cc3ccc4c(c3)c(c(-c3cccnc3[C@H](C)OC)n4CC)CC(C)(C)COC(=O)[C@@H]3CCCN(N3)C2=O)C(C)C)C1 (atropisomer, axis not shown) [Example A500] | > 1000 nM | – | > 10 µM | – | > 10000 nM | > 10000 nM | > 10000 nM | – | > 10000 nM | > 10000 nM | –
C=CC(=O)N1CC[C@H](C(=O)N(C)[C@H](C(=O)N[C@H]2Cc3nc(cs3)-c3ccc4c(c3)c(c(-c3cc(C5=CCN(C)CC5)cnc3[C@H](C)OC)n4CC)CC(C)(C)COC(=O)[C@@H]3CCCN(N3)C2=O)C(C)C)C1 (atropisomer, axis not shown) [Example A521] | – | – | > 10 µM | 1000 to 10000 nM | 1000 to 10000 nM | – | – | – | – | 1000 to 10000 nM | < 5 µM
CCn1c(-c2cccnc2COC)c2c3cc(ccc31)-c1cc(O)cc(c1)C[C@H](NC(=O)[C@H](C(C)C)N(C)C(=O)[C@H]1CCN(C(=O)C#CCN3CCOCC3)C1)C(=O)N1CCC[C@H](N1)C(=O)OCC(C)(C)C2 [Example A095] | – | 1000 to 10000 nM | > 10 µM | – | 100 to 1000 nM | 100 to 1000 nM | 1000 to 10000 nM | – | 100 to 1000 nM | – | –
C=CC(=O)N(C)CCCC(=O)N(C)[C@H](C(=O)N[C@H]1Cc2cc(O)cc(c2)-c2ccc3c(c2)c(c(-c2cccnc2COC)n3CC)CC(C)(C)COC(=O)[C@@H]2CCCN(N2)C1=O)C(C)C [Example A101] | 100 to 1000 nM | – | 1 to 10 µM | 100 to 1000 nM | 100 to 1000 nM | 100 to 1000 nM | 100 to 1000 nM | – | 100 to 1000 nM | – | < 5 µM
